Experiments:
Histone deacetylase 2 = Histone deacetylase 2 (Homo sapiens, UniProt Q92769)
Histone deacetylase 3 = Histone deacetylase 3 (Homo sapiens, UniProt O15379)
Chain of Histone deacetylase 3 (O15379 whole entry): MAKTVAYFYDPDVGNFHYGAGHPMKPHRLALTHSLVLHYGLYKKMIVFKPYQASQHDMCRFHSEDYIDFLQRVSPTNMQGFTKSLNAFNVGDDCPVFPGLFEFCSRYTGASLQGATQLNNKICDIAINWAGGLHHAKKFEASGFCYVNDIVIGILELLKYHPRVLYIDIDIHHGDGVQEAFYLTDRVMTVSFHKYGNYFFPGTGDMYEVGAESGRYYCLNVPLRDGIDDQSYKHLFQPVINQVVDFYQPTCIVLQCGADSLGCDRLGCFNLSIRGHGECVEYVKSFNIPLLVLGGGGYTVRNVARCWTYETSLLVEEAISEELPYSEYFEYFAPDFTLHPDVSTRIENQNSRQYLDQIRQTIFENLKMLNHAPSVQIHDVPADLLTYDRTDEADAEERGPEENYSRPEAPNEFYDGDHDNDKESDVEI

Chain of Histone deacetylase 2 (Q92769 whole entry): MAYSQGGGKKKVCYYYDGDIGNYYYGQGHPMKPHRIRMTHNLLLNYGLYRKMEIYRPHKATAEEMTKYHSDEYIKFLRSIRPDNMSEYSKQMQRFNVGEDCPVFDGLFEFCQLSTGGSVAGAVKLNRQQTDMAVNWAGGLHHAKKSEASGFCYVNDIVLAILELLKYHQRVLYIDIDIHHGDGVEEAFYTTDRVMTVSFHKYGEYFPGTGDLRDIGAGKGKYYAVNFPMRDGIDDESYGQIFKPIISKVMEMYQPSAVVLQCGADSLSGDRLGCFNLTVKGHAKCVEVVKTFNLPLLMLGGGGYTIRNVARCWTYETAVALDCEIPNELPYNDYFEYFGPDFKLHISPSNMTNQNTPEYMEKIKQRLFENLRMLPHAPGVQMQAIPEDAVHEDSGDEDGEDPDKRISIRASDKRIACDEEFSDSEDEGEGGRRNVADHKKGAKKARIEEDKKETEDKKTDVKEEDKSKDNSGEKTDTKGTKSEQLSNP

Row | IC50 (Histone deacetylase 2) | IC50 (Histone deacetylase 3) | Structure (SMILES)
1 | 211 nM | > 2000 nM | CN(c1ncc(C(=O)Nc2cc(-c3ccccc3)ccc2N)cn1)C1CCN(C(=O)Cc2c[nH]c3ccccc23)CC1 [US9790180, ID 033]
2 | 196 nM | 1400 nM | Nc1ccc(-c2ccccc2)cc1NC(=O)c1cnc(NC2CCN(C(=O)Cc3c[nH]c4ccccc34)CC2)nc1 [US9790180, ID 035]
3 | 26 nM | 252 nM | CC1(Nc2ncc(C(=O)Nc3cc(-c4ccccc4)ccc3N)cn2)CCNCC1 [US9790180, ID 041]

Source: BindingDB's records for patent US9790180 (REGENACY PHARMACEUTICALS, LLC, 2017)
